SMILES strings stand for the structures. Some results are limits rather than exact numbers.

In the test the test system is HCT116. The experiment in a line: In Vitro cytotoxicity measured by the cell colony formation assay. In kind it is cell-based, human. Conditions: Homo sapiens, HCT-116; read-out: IN VITRO ID 50 HCT116. An outline of the steps:
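Four hundred cells per dish in McCoy's 5a medium with 10% FBS were allowed to attach for 5 h at 37 °C. They were then exposed to compound for 72 h at 37 °C, added as a 10× stock made fresh in medium. After HBSS rinsing and refeeding, colonies were counted after 7 days.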
For the compound `CCCC(=O)O[C@H]1C(=O)[C@@]2(C)[C@H]([C@H](OC(=O)c3ccccc3)[C@]3(O)C[C@H](OC(=O)[C@H](O)[C@@H](NC(=O)OC(C)(C)C)c4ccncc4)C(C)=C1C3(C)C)[C@]1(OC(C)=O)CO[C@@H]1C[C@@H]2O` [Compound 0978], the IC50 was under 1 nM.
As for `CCC(=O)O[C@H]1C(=O)[C@@]2(C)[C@H]([C@H](OC(=O)c3ccccc3)[C@]3(O)C[C@H](OC(=O)[C@H](O)[C@@H](NC(=O)c4ccncc4)c4cccs4)C(C)=C1C3(C)C)[C@]1(OC(C)=O)CO[C@@H]1C[C@@H]2O` [Compound 4207], the IC50 is under 10 nM.
As for `CC(=O)O[C@@]12CO[C@@H]1C[C@H](O)[C@@]1(C)C(=O)[C@H](OC(=O)c3ccco3)C3=C(C)[C@@H](OC(=O)[C@H](O)[C@@H](NC(=O)OC(C)(C)C)C(C)C)C[C@@](O)([C@@H](OC(=O)c4ccccc4)[C@H]21)C3(C)C` [Compound 2181], the figure is under 10 nM; as for `CC(=O)O[C@@]12CO[C@@H]1C[C@H](O)[C@@]1(C)C(=O)[C@H](OC(=O)c3cccs3)C3=C(C)[C@@H](OC(=O)[C@H](O)[C@@H](NC(=O)OC(C)(C)C)c4ccc([N+](=O)[O-])cc4)C[C@@](O)([C@@H](OC(=O)c4ccccc4)[C@H]21)C3(C)C` [Compound 1911], under 10 nM; as for `CCCC(=O)O[C@H]1C(=O)[C@@]2(C)[C@H]([C@H](OC(=O)c3ccccc3)[C@]3(O)C[C@H](OC(=O)[C@H](O)[C@@H](NC(=O)c4cccnc4)c4cccs4)C(C)=C1C3(C)C)[C@]1(OC(C)=O)CO[C@@H]1C[C@@H]2O` [Compound 4190], under 10 nM.
Next, `CC(=O)OC12COC1CC(O)C1(C)C(=O)C(OC(=O)C(C)C)C3=C(C)C(OC(=O)C(O)C(NC(=O)OC(C)(C)C)c4ccoc4)CC(O)(C(OC(=O)c4ccccc4)C21)C3(C)C` (stereo not drawn) [Compound 2273]: under 1 nM; `CCC(=O)O[C@H]1C(=O)[C@@]2(C)[C@H]([C@H](OC(=O)c3ccccc3)[C@]3(O)C[C@H](OC(=O)[C@H](O)[C@@H](NC(=O)c4ccccc4)C4CCC4)C(C)=C1C3(C)C)[C@]1(OC(C)=O)CO[C@@H]1C[C@@H]2O` [Compound 0720]: under 10 nM.
For `CCC(=O)O[C@H]1C(=O)[C@@]2(C)[C@H]([C@H](OC(=O)c3ccccc3)[C@]3(O)C[C@H](OC(=O)[C@H](O)[C@@H](NC(=O)c4cccs4)c4cccs4)C(C)=C1C3(C)C)[C@]1(OC(C)=O)CO[C@@H]1C[C@@H]2O` [Compound 3425], the IC50 was under 1 nM.
Next, `CC(=O)O[C@@]12CO[C@@H]1C[C@H](O)[C@@]1(C)C(=O)[C@H](OC(=O)C=C(C)C)C3=C(C)[C@@H](OC(=O)[C@H](O)[C@@H](NC(=O)OC(C)(C)C)c4cccs4)C[C@@](O)([C@@H](OC(=O)c4ccccc4)[C@H]21)C3(C)C` [Compound 2503]: under 1 nM; `CC(=O)O[C@@]12CO[C@@H]1C[C@H](O)[C@@]1(C)C(=O)[C@H](OC(=O)C3CC3)C3=C(C)[C@@H](OC(=O)[C@H](O)[C@@H](NC(=O)OCC(C)C)c4ccco4)C[C@@](O)([C@@H](OC(=O)c4ccccc4)[C@H]21)C3(C)C` [Compound 3102]: under 1 nM.
Turning to `CCC(=O)O[C@H]1C(=O)[C@@]2(C)[C@H]([C@H](OC(=O)c3ccccc3)[C@]3(O)C[C@H](OC(=O)[C@H](O)[C@@H](NC(=O)c4cccs4)c4ccco4)C(C)=C1C3(C)C)[C@]1(OC(C)=O)CO[C@@H]1C[C@@H]2O` [Compound 3644], the IC50 was under 1 nM.
`CCC(=O)O[C@H]1C(=O)[C@@]2(C)[C@H]([C@H](OC(=O)c3ccccc3)[C@]3(O)C[C@H](OC(=O)[C@H](O)[C@@H](NC(=O)c4ccco4)c4cccs4)C(C)=C1C3(C)C)[C@]1(OC(C)=O)CO[C@@H]1C[C@@H]2O` [Compound 3053]: the IC50 was under 1 nM.
Turning to `CCCC(=O)O[C@H]1C(=O)[C@@]2(C)[C@H]([C@H](OC(=O)c3ccccc3)[C@]3(O)C[C@H](OC(=O)[C@H](O)[C@@H](NC(=O)c4cccs4)c4cccs4)C(C)=C1C3(C)C)[C@]1(OC(C)=O)CO[C@@H]1C[C@@H]2O` [Compound 3408], the IC50 was under 1 nM.
As to `CCCC(=O)O[C@H]1C(=O)[C@@]2(C)[C@H]([C@H](OC(=O)c3ccccc3)[C@]3(O)C[C@H](OC(=O)[C@H](O)[C@@H](NC(=O)OCC(C)C)c4ccsc4)C(C)=C1C3(C)C)[C@]1(OC(C)=O)CO[C@@H]1C[C@@H]2O` [Compound 4834], the IC50 is under 10 nM.
Next, `CC(=O)O[C@@]12CO[C@@H]1C[C@H](O)[C@@]1(C)C(=O)[C@H](OC(=O)c3ccco3)C3=C(C)[C@@H](OC(=O)[C@H](O)[C@@H](NC(=O)OC(C)(C)C)c4ccsc4)C[C@@](O)([C@@H](OC(=O)c4ccccc4)[C@H]21)C3(C)C` [Compound 2173]: under 1 nM.
As for `CCC(=O)O[C@H]1C(=O)[C@@]2(C)[C@H]([C@H](OC(=O)c3ccccc3)[C@]3(O)C[C@H](OC(=O)[C@H](O)[C@@H](NC(=O)OC(C)(C)C)C4CCC4)C(C)=C1C3(C)C)[C@]1(OC(C)=O)CO[C@@H]1C[C@@H]2O` [Compound 0596], the figure is under 10 nM.
As for `CC(=O)O[C@@]12CO[C@@H]1C[C@H](O)[C@@]1(C)C(=O)[C@H](OC(=O)C3CC3)C3=C(C)[C@@H](OC(=O)[C@H](O)[C@@H](NC(=O)c4ccccc4)c4ccsc4)C[C@@](O)([C@@H](OC(=O)c4ccccc4)[C@H]21)C3(C)C` [Compound 2838], the figure is under 1 nM; as for `CCCC(=O)N[C@@H](c1ccco1)[C@@H](O)C(=O)O[C@H]1C[C@@]2(O)[C@@H](OC(=O)c3ccccc3)[C@@H]3[C@]4(OC(C)=O)CO[C@@H]4C[C@H](O)[C@@]3(C)C(=O)[C@H](OC(=O)CC)C(=C1C)C2(C)C` [Compound 3219], under 1 nM; as for `CC(=O)O[C@@]12CO[C@@H]1C[C@H](O)[C@@]1(C)C(=O)[C@H](OC(=O)C=C(C)C)C3=C(C)[C@@H](OC(=O)[C@H](O)[C@@H](NC(=O)OC(C)(C)C)c4ccncc4)C[C@@](O)([C@@H](OC(=O)c4ccccc4)[C@H]21)C3(C)C` [Compound 2472], under 1 nM.
Take `CC(=O)OC12COC1CC(O)C1(C)C(=O)C(OC(=O)C(C)C)C3=C(C)C(OC(=O)C(O)C(NC(=O)OC(C)(C)C)C4CCC4)CC(O)(C(OC(=O)c4ccccc4)C21)C3(C)C` (stereo not drawn) [Compound 2319]: the IC50 was under 10 nM.
As for `CCOC(=O)N[C@@H](c1ccco1)[C@@H](O)C(=O)O[C@H]1C[C@@]2(O)[C@@H](OC(=O)c3ccccc3)[C@@H]3[C@]4(OC(C)=O)CO[C@@H]4C[C@H](O)[C@@]3(C)C(=O)[C@H](OC(=O)C3CC3)C(=C1C)C2(C)C` [Compound 3677], the figure is under 1 nM; as for `CC(=O)O[C@@]12CO[C@@H]1C[C@H](O)[C@@]1(C)C(=O)[C@H](OC(=O)C3CC3)C3=C(C)[C@@H](OC(=O)[C@H](O)[C@@H](NC(=O)OC(C)(C)C)c4ccccc4)C[C@@](O)([C@@H](OC(=O)c4ccccc4)[C@H]21)C3(C)C` [Compound 0882], under 1 nM; as for `CCCC(=O)OC1C(=O)C2(C)C(O)CC3OCC3(OC(C)=O)C2C(OC(=O)c2ccccc2)C2(O)CC(OC(=O)C(O)C(C=C(C)C)NC(=O)OCC(C)C)C(C)=C1C2(C)C` (stereo not drawn) [Compound 5144], under 10 nM.
`CC(=O)O[C@@]12CO[C@@H]1C[C@H](O)[C@@]1(C)C(=O)[C@H](OC(=O)C=C(C)C)C3=C(C)[C@@H](OC(=O)[C@H](O)[C@@H](NC(=O)OC(C)(C)C)c4ccsc4)C[C@@](O)([C@@H](OC(=O)c4ccccc4)[C@H]21)C3(C)C` [Compound 2511]: the IC50 was under 1 nM.

(Values after patent EP1285920A1, “C10 Ester sustituted taxanes as antitumor agents” (Florida State University Research Foundation, Inc., priority 2001, dated 2003).)
